Data as given in patent US20230372319A1, “Combination Treatment of Cancer” (Ares Trading S.A., priority 2020, published 2023).
pIC50: −log10 of the molar value.

Tests used:
AT-3 cells = test: Orthotopic AT-3 breast cancer model; format: in vivo, C57BL/6 mice; conditions: for median survival: isotype control 13 days; for responders (mice with tumor volumes<1 σ of the control group mean): day 13 post treatment start, n=10 mice/group
Description: C57BL/6 mice were inoculated orthotopically with AT3 cells (0.5×10^6) in the mammary fat pad (day −11). […] Tumor volumes were measured twice weekly. In the lower plot, individual tumor volumes at day 13 are presented with a line representing the median tumor volume and error bars showing the 95% confidence intervals. […] P-values were calculated by two-way ANOVA with Tukey's post-test.
AT-3 cells were obtained from Sigma and were cultured in DMEM supplemented with 10% FBS, 1 mM sodium pyruvate, 2 mM non-essential amino acids, 15 mM HEPES, and 1×β-mercaptoethanol. […] Cells were cultured under aseptic conditions and incubated at 37° C. with 5% CO2. Cells were passaged before in vivo implantation and adherent cells were harvested with TrypLE Express.
For the efficacy study, 0.5×10^6 AT-3 cells were inoculated orthotopically into the right lower mammary at pad of C57BL/6 mice on day −11. Treatment was initiated on day 0 when average tumor volume reached ˜50 mm^3. Mice were sacrificed when tumor volumes reached ˜1000 mm^3.
Mice were randomized into treatment groups according to tumor volume on the day of treatment initiation (day 0).
The isotype control is a mutated version of anti-PD-L1, which completely lacks PD-L1 binding. In tumor-bearing mice, bintrafusp alfa (492 μg) or isotype control (400 μg) were administered with an intravenous (i.v.) injection in 0.2 mL PBS.
Radiation therapy (RT) was delivered at 8 Grey (Gy) on days 0-3.
Tumor sizes were measured twice per week with digital calipers and recorded automatically using WinWedge software. Tumor volumes were calculated with the following formula: tumor volume (mm^3)=tumor length×width×height×0.5236. Tumor growth inhibition (TGI) was calculated with the following formula: TGI (%)=[1−(Ti−T0)/(Vi−V0)]×100, where Ti is the average tumor volume (mm^3) of a treatment group on a given day, T0 is the average tumor volume of the treatment group on the first day of treatment, Vi is the average tumor volume of the vehicle control group on the same day as Ti, and V0 is the average tumor volume of the vehicle control group on the first day of treatment. To compare the percentage survival between different treatment groups, Kaplan-Meier survival curves were generated. Body weight was measured twice weekly and mice were sacrificed when their tumor volume exceeded 2,500 mm^3 for s.c. and intramuscular tumors and 1,000 mm^3 for mammary orthotopic tumors.

RENCA cells = conditions: BALB/c mice, day 12; bintrafusp alfa 492 μg i.v. days 0, 2, 5; niraparib 50 mg/kg p.o. days 0-11
Description: BALB/c mice were inoculated orthotopically with RENCA cells (0.5×10^5) in the left kidney (day −6). […] Mice were euthanized at day 12 and both kidneys were weighed. The weight of the tumor bearing left kidney was divided by the weight of the bilateral right kidney to calculate the kidney mass ratio. Individual kidney mass ratios were plotted, with a line representing the median.
The RENCA cells were obtained from ATCC (ATCC® CRL-2947™) and were cultured in RPMI-1640 with 10% heat inactivated fetal bovine serum and 0.1 mM non-essential amino acids. […] Cells were cultured under aseptic conditions and incubated at 37° C. with 5% CO2. […]
(§1) Tumor sizes were measured twice per week with digital calipers and recorded automatically using WinWedge software. Tumor volumes were calculated with the following formula: tumor volume (mm^3)=tumor length×width×height×0.5236. Tumor growth inhibition (TGI) was calculated with the following formula: TGI (%)=[1−(Ti−T0)/(Vi−V0)]×100, where Ti is the average tumor volume (mm^3) of a treatment group on a given day, T0 is the average tumor volume of the treatment group on the first day of treatment, Vi is the average tumor volume of the vehicle control group on the same day as Ti, and V0 is the average tumor volume of the vehicle control group on the first day of treatment. […]

B16F10 cells = test: Subcutaneous B16F10 melanoma model; format: in vivo; conditions: C57BL/6 mice, s.c.; bintrafusp alfa 492 μg i.v. days 0, 3, 6; niraparib 50 mg/kg p.o. QDx14; days 15/19; vs isotype control or monotherapies as stated
Description: C57BLJ6 mice were inoculated subcutaneously with B16F10 cells (0.5×10^6) in the flank. […] Tumor volumes were measured twice weekly and presented as mean ±SEM or as individual tumor volumes. P-values were calculated by two-way ANOVA with Tukey's or Sidak's post-test.
B16F10 cells were obtained from (ATCC) and were cultured in Dulbecco's Modified Eagle's medium (DMEM) supplemented with 10% fetal bovine serum (FBS). […] Cells were cultured under aseptic conditions and incubated at 37° C. with 5% CO2. Cells were passaged before in vivo implantation and adherent cells were harvested with TrypLE Express. […]
as §1

[1] = test system: MDA-MB-231 human breast cancer; test: MDA-MB-231 breast cancer model; format: in vivo; conditions: NOD/SCID mice, s.c.; bintrafusp alfa 492 μg i.v. BiWx4; niraparib 50 mg/kg p.o. QDx28; day 41; vs isotype control or monotherapies as stated
Description: NOD/SCID mice were subcutaneously inoculated with MDA-MB-231 cells (10×10^6) in the right flank (day −19). […] Tumor volumes were measured twice weekly and presented as mean ±SEM or as individual tumor volumes. P-values were calculated by two-way ANOVA with Tukey's post-test.
MDA-MB-231 (BRCA-wt) cells were obtained from ATCC (ATCC® HTB-26™) and were cultured in Leibovitz's L-15 supplemented with 15% heat inactivated fetal bovine serum, 100 U/ml penicillin and 100 μg/ml streptomycin at 37° C. in an atmosphere of 5% CO2 in air. […] Cells were cultured under aseptic conditions and incubated at 37° C. with 5% CO2. Cells were passaged before in vivo implantation and adherent cells were harvested with TrypLE Express. […]
as §1

[2] = test system: PARP activity in various cell lines; conditions: cited from earlier work
[3] = test system: MDA-MB-436 human breast cancer cell line; test: MDA-MB-436 breast cancer model; format: in vivo; conditions: NOD/SCID mice, bintrafusp alfa 492 μg i.v. BiWx4, niraparib 35 mg/kg p.o. QDx28
Description: NOD/SCID mice were inoculated with MDA-MB-436 cells (10×10^6) in the right flank (day −19). […] Tumor volumes were measured twice weekly and presented as mean ±SEM or as individual tumor volumes. P-values were calculated by two-way ANOVA with Tukey's or Sidak's post-test.
MDA-MB-436 (BRCA1-mut) cells were obtained from American Type Culture Collection (ATCC® HTB-130™) and were cultured in RPMI-1640 supplemented with 10% heat inactivated fetal bovine serum, 100 U/ml penicillin and 100 μg/ml streptomycin at 37° C. in an atmosphere of 5% CO2 in air. […] Cells were cultured under aseptic conditions and incubated at 37° C. with 5% CO2. […]
as §1

Compound	tumor growth relative to isotype control or bintrafusp alfa monotherapy, in words (AT-3 cells; C57BL/6 mice, day 13, bintrafusp alfa 492 μg i.v. days 0, 3, 6, niraparib 50 mg/kg p.o. days 0-13)	median survival (AT-3 cells; C57BL/6 mice)	responders (mice with tumor volumes<1 σ of the control group mean) (AT-3 cells)	relative kidney tumor burden: ratio of mass of tumor bearing kidney to bilateral normal kidney (median) (RENCA cells)	tumor growth (tumor volume), in words (B16F10 cells)	tumor growth (tumor volume), in words [1]	inhibitory concentration at 90% of control (1090) of PARP activity in cells ([2]; PARP activity stimulated by DNA damage caused by hydrogen peroxide)	pIC50 ([2]; read-out: IC50 of PARP activity in cells, PARP activity stimulated by DNA damage caused by hydrogen peroxide)	median time to disease progression after stopping treatment [3]	tumor growth (tumor volume), in words ([3]; vs isotype control or monotherapy as stated, days 41/69)
bintrafusp alfa: anti-PD-L1:TGFβRII fusion protein; human IgG1 antibody against PD-L1 fused to extracellular domain of human TGF-β receptor II; SEQ ID NO: 7 and 8	did not significantly reduce tumor growth	13 days	1/10	3.74	neither bintrafusp alfa nor niraparib monotherapies significantly reduced tumor growth	significantly reduced tumor growth				
NC(=O)c1cccc2cn(-c3ccc([C@@H]4CCCNC4)cc3)nc12 [niraparib, (3S)-3-[4-{7-(aminocarbonyl)-2H-indazol-2-yl}phenyl]piperidine]		13 days	5/10		neither bintrafusp alfa nor niraparib monotherapies significantly reduced tumor growth	significantly reduced tumor growth	~50 nM	~8.40	42.5 days	significantly inhibited tumor growth
